One assay deals with T1, kappa receptors (Mus musculus, UniProt P33534).
T1 construct: tested in vivo using the mouse writhing procedure of G. Hayashi et al; from tissue; host or cells: whole mouse in vivo (s.c. dosing)
As to the kind of experiment: Mouse writhing procedure, antagonism of U50488H. It counts as in vivo, mice. An excerpt:
(§1) Physiological data for guinea pig ileal longitudinal muscle (GPI) was obtained by the methodology of H. P. Rang, “Stimulant Actions of Volatile Anaesthetics on Smooth Muscle,” Brit. J. Pharmacol., 22, 356 (1964) on Dunkin-Hartley males; mouse vas deferens (MVD) data was obtained using Henderson's method on Swiss-Webster males (G. Henderson et al., “A New Example of a Morphine-Sensitive Neuroeffector Junction: Adrenergic Transmission in the Mouse vas Deferens,” Brit. J. Pharmacol., 46, 764 (1972). Guinea pig brain membrane binding assays were done on Dunkin-Hartley males using a modification of the method of L. L. Werling et al., “Opioid Binding to Rat and Guinea Pig Neural Membranes in the Presence of Physiological Cations at 37° C.,” J. Pharmacol. Exp. Ther., 233 722 (1985). In vivo assays were done s.c. on mice.
(§2) Compound δ was tested in vivo using the mouse writhing procedure of G. Hayashi et al., Eur. J. Pharmacol., 85, 163 (1982).

In assay [1] the target is T2, mu opioid receptors (Mus musculus, UniProt P42866).
T2 construct: tested in vivo using the mouse writhing procedure of G. Hayashi et al; from tissue; host or cells: whole mouse in vivo (s.c. dosing)
T2 sequence (P42866 whole entry): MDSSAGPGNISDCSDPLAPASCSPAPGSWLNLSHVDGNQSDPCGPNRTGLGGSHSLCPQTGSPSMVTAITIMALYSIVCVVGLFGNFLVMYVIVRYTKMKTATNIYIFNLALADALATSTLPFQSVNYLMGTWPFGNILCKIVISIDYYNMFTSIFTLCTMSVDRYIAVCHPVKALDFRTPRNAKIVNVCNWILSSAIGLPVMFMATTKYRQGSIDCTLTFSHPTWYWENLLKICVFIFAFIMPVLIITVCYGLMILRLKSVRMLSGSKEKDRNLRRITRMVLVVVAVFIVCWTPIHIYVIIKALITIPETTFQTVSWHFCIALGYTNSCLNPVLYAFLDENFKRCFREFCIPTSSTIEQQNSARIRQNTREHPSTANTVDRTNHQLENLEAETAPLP
Kind of assay: Mouse writhing procedure, antagonism of morphine. It counts as in vivo. Particulars: mice; agonist 50 nmol; antagonist 4 mg/kg sc.
Source text: as §1, §2

In another assay the target is T3, kappa opioid receptors (Cavia porcellus, UniProt P41144).
T3 construct: a strip of longitudinal muscle with the myenteric plexus attached was prepared; from tissue; host or cells: guinea pig ileal longitudinal muscle with myenteric plexus (Dunkin-Hartley males)
T3 sequence (P41144 whole entry): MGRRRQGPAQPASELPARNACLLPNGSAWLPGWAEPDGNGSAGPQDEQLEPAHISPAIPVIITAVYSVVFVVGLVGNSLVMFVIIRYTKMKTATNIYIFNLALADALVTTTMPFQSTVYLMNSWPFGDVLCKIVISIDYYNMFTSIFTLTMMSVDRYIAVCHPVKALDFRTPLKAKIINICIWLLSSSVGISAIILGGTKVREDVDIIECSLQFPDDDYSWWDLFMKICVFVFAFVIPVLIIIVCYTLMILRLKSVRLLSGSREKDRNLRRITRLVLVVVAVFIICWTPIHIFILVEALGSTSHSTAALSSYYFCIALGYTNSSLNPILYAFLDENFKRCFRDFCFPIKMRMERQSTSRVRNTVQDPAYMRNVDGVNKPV
Kind of assay: Guinea pig ileal longitudinal muscle (GPI), antagonism of ethylketazocine (EK). It counts as cell-based. On the procedure: (§3) Physiological data for guinea pig ileal longitudinal muscle (GPI) was obtained by the methodology of H. P. Rang, “Stimulant Actions of Volatile Anaesthetics on Smooth Muscle,” Brit. […] In vivo assays were done s.c. on mice.
(§4) 1. Guinea Pig Ileal Longitudinal Muscle (GPI). Ilea from guinea pigs were taken approximately 10 cm from the ileocecal junction, and a strip of longitudinal muscle with the myenteric plexus attached was prepared by the method of […] et al., Brit. […] A 1 cm portion of this strip was then mounted between two platinum electrodes placed in a 10 ml organ bath and connected to an isometric transducer; contractions were recorded on a polygraph. Contractions of the ileal strip were initiated by supramaximal rectangular pulses in all preparations (80 V of 0.5 ms duration at a frequency of 0.1 Hz). […] The organ bath was maintained at 36°-37° C. The longitudinal muscle strip was allowed to equilibrate with continuous stimulation for a minimum of 90 min. Cumulative concentration-response curves were determined after drugs were added to the bath in preselected amounts and washed out with buffer after noting their maximum effects.
(§5) Concentration-response curves were obtained in the absence (control) and the presence of the antagonist are expressed as IC50 values. The IC50 ratio represents the IC50 in the presence of the antagonist divided by the control IC50 value in the same tissue. Therefore, a high IC50 ratio represents a correspondingly high degree of antagonism at a particular receptor. This IC50 ratio was employed to calculate the Ke value using the equation Ke=[antagonist]/(IC50 ratio-1). Therefore, a low Ke represents a correspondingly high degree of binding at a particular receptor.

The target in assay [2] is T4, delta opioid receptors (Mus musculus, UniProt P32300). Kind of assay: Mouse vas deferens (MVD), antagonism of DADLE (D). It counts as cell-based. Further details: Both vasa deferentia were dissected out of mice and mounted singly; from tissue; host or cells: mouse vas deferens (Swiss-Webster males) for A3; whole mouse in vivo for A7. Conditions: antagonist 100 nM; agonist DADLE. On the procedure: 2. Mouse Vas Deferens (MVD). This assay was performed according to the description by G. Henderson et al., Brit. […] Both vasa deferentia were dissected out of mice and mounted singly through two platinum ring electrodes in a 10 ml organ bath. The bath contained Krebs bicarbonate solution that was continuously bubbled with 95% O2 and 5% CO2. The organ bath was maintained at 37° C. The tissue was attached to an isometric transducer and stimulated transmurally with rectangular pulses ([…], 1 ms duration, supramaximal voltage). Drugs were added cumulatively to the bath in preselected amounts and washed out after noting their maximum effects.
T4 sequence (P32300 whole entry): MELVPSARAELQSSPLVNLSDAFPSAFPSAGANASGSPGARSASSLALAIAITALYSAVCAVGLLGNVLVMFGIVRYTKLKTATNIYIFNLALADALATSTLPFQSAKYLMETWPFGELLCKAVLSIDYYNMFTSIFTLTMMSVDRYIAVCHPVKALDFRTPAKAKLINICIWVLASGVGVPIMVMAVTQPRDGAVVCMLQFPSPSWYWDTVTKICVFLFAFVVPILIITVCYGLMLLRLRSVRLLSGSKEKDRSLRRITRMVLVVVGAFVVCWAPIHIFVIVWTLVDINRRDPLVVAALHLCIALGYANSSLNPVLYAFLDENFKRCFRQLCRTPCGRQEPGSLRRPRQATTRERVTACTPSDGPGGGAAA
as §5

Assay [3] addresses T4, delta opioid receptors. As to the kind of experiment: Mouse writhing procedure, antagonism of DADLE. It counts as in vivo. Particulars: mice; agonist 50 nmol; antagonist 4 mg/kg sc.
Source text: as §1, §2
For orientation: An intraperitoneal irritant provokes the stretching counted in writhing tests.

Assay [4] deals with mu opioid receptors. Conditions: antagonist 100 nM; agonist morphine. The procedure: as §3, §4, §5

T1 sequence (P33534 whole entry): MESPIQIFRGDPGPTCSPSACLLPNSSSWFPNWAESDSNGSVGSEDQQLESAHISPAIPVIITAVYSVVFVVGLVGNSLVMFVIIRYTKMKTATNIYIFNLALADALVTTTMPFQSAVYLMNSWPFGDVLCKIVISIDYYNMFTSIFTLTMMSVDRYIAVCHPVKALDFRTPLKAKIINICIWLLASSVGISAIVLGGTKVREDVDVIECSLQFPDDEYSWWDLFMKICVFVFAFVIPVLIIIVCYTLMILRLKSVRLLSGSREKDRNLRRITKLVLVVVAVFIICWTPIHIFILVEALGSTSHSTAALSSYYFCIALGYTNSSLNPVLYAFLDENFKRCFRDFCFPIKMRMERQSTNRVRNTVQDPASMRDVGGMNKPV

The Kb is the affinity of an antagonist, worked out from how it opposes an agonist. As to “17-(Cyclopropylmethyl)-6,7-dehydro-4,5α-epoxy-3,14-dihydroxy-5-[(N^2-pentanamidino)methyl]-6,7-2′,3′-indolomorphinan Dihydrochloride [Compound 6]”, the “ED50 ratio [(agonist + 6)/agonist control], U50488H” value at kappa receptors (mice, agonist 50 nmol, antagonist 4 mg/kg sc) worked out at 3.77. In addition, the “antagonist selectivity in the whole animal model” value at kappa receptors (mouse writhing, 4 mg/kg sc) is recorded as “selective kappa antagonist”. In addition, at mu opioid receptors [1], the “ED50 ratio [(agonist + 6)/agonist control], morphine” value is on record as 1.63. Further, the “Selectivity κ/μ” value on kappa opioid receptors (GPI EK versus GPI morphine) is given as 28. Also, the “Selectivity κ/δ” value on kappa opioid receptors (GPI EK versus MVD DADLE) was 93. For the same substance, the “kappa antagonist potency compared with norBNI” value at kappa opioid receptors (GPI, EK) was “more potent”. Moreover, at kappa opioid receptors (GPI/MVD), the “kappa selectivity compared with norBNI” value was “more selective”; the “potency and selectivity compared with norBNI” value was “more potent and selective”. At kappa opioid receptors (antagonist 100 nM, 15 min incubation, agonist ethylketazocine, Ke=[antagonist]/(IC50 ratio-1)), the Kb amounted to 0.23 nM. Also, the “IC50 ratio, EK (GPI)” value on kappa opioid receptors (antagonist 100 nM, IC50 agonist + antagonist/IC50 agonist, agonist ethylketazocine) is recorded as 439 ± 100. On delta opioid receptors [2], the “IC50 ratio, D (MVD)” value is given as 4.71 ± 1.06 and the “Ke, D (MVD)” value was found to be 26.9 nM. Besides, the “ED50 ratio [(agonist + 6)/agonist control], DADLE” value on delta opioid receptors [3] is on record as 0.25. For the same substance, at mu opioid receptors [4], the “IC50 ratio, M (GPI)” value came to 15.7 ± 4.0 and the “Ke, M (GPI)” value is on record as 6.80 nM.
